Data published in ChEMBL document CHEMBL3352798, “Cytotoxic vobasine, tacaman, and corynanthe-tryptamine bisindole alkaloids from Tabernaemontana and structure revision of tronoharine” (J Nat Prod, 2014).
Converted amounts (≈) assume the structure as drawn.

Legend:
Format in all cases: functional, cell-based
[1] = Cytotoxicity against vincristine-resistant human KB/VJ300 cells in presence of vincristine
[2] = Cytotoxicity against vincristine-resistant human KB/VJ300 cells
KB = assay: Cytotoxicity against vincristine-sensitive human KB cells

| Compound | IC50 [1] [µg/mL] | IC50 [2] [µg/mL] | IC50 (KB) [µg/mL] |
| --- | --- | --- | --- |
| CC[C@@H]1CN(C)[C@H]2Cc3c([nH]c4ccccc34)C(=O)C[C@H]1[C@H]2C(=O)OC | 9.4 | > 25 | 5.5 (≈ 15.5 µM) |
| COC(=O)[C@@H]1[C@@H]2Cc3c([nH]c4ccccc34)C(=O)C[C@@H]1[C@@]1(CN2C)O[C@H]1C | > 25 | > 25 | 5.7 (≈ 15.5 µM) |
| CCC1=CN(C)[C@H]2Cc3c([nH]c4ccccc34)C(=O)C[C@H]1[C@@H]2C(=O)OC | > 25 | > 25 | 18.9 (≈ 53.6 µM) |
| COC(=O)[C@H]1[C@@H]2CC(=O)c3[nH]c4ccccc4c3C[C@@H]1N(C)C=C2C(C)=O | > 25 | > 25 | > 25 |
| C/C=C1\CN2CC[C@@]3(C(=O)Nc4ccccc43)[C@@H]2C[C@H]1C[C@@H]1NCCc2c1[nH]c1ccccc21 | 8.4 | > 25 | 20 (≈ 44.2 µM) |
| CC[C@H]1CN(C)[C@H]2Cc3c([nH]c4ccccc34)C(=O)C[C@H]1[C@@H]2C(=O)OC | > 25 | > 25 | > 25 |
| C/C=C1/CN(C)[C@H]2Cc3c([nH]c4ccccc34)C(=O)C[C@H]1[C@H]2C(=O)OC | 13.5 | 22 (≈ 62.4 µM) | 5.6 (≈ 15.9 µM) |
| COC(=O)[C@H]1[C@@H]2CC(=O)c3[nH]c4ccccc4c3C[C@@H]1N(C)C=C2C=O | > 25 | > 25 | > 25 |
| COC(=O)[C@@H]1[C@@H]2CC(=O)c3[nH]c4ccccc4c3C[C@@H]1N(C)C=C2C=O | > 25 | > 25 | 5.1 (≈ 14.5 µM) |
| CC[C@@H]1CN(C)[C@H]2Cc3c([nH]c4ccccc34)C(=O)C[C@@H]1[C@H]2C(=O)OC [TABERNAEMONTANINE] | > 25 | > 25 | > 25 |
| CC[C@]1(O)C[C@H]2CN(CCc3c([nH]c4ccccc34)[C@@](C(=O)OC)(c3cc4c(cc3OC)N(C=O)[C@H]3[C@@](O)(C(=O)OC)[C@H](OC(C)=O)[C@]5(CC)C=CCN6CC[C@]43[C@@H]65)C2)C1 [VINCRISTINE] | – | 5.4 (≈ 6.55 µM) | 0.007 (≈ 0.00849 µM) |
| C/C=C1/CN(C)[C@H]2Cc3c([nH]c4ccccc34)C(=O)C[C@H]1[C@@H]2C(=O)OC [VOBASINE] | > 25 | > 25 | > 25 |
